Assay results as given in patent US5919668A, “Non-reducing saccharide and its production and use” (Kabushiki Kaisha Hayashibara Seibutsu Kagaku Kenkyujo, priority 1994, dated 1999).
Entries after “also recorded” stand apart in the source; their conditions may differ.

Columns and labels:
[1] = Reducing power by the Somogyi-Nelson method, represented in terms of DE; assay type: physicochemical; conditions: high-purity preparations, Somogyi-Nelson method
Experimental: The high-purity preparations of the newly formed saccharides were determined for reducing power by the Somogyi-Nelson method and represented in terms of DE.

[2] = Maillard reaction (coloration with glycine, absorbance at 480 nm); assay type: physicochemical; conditions: for Coloration degree relative to maltooligosaccharides as material: 480 nm, with glycine
Experimental: Solutions of 10% saccharide preparation PI, PII, PIII, PIV or PV prepared in Experiment 4 and 1% glycine in 50 mM phosphate buffer (pH7.0) were incubated at 100° C. for 90 minuets, cooled and determined in 1 cm cuvette for absorbance at 480 nm. As control, maltotriose, maltotetraose, maltopentaose, maltohexaose and maltoheptaose which were used as the starting materials were treated similarly as above and determined for absorbance at 480 nm.
10% High-purity trehalose preparation, purity of 99.5%, obtained by the method in Experiment 17 and 1% glycine in 50 mM phosphate buffer (pH7.0) was incubated at 100° C. for 90 minutes, cooled and measured in lcm cuvette for absorbance at 480 nm. As control, glucose and maltose were treated similarly as above and then measured for absorbance at 480 nm.

glucoamylase = assay: Enzymatic hydrolysis by glucoamylase; assay type: biochemical; conditions: for Molar ratio (glucose/trehalose): degradation product by glucoamylase; for Glucose in degradation product by glucoamylase / Trehalose in degradation product by glucoamylase: pH4.5, 40° C., 6 hours
Experimental: Fifty milligrams of the non-reducing saccharide preparation PI, PII, PIII, PIV or PV prepared in Experiment 4 was dissolved in 1 ml of 50 mM acetate buffer (pH4.5), added with one unit of the glucoamylase commercialized by Seikagaku Corp., Tokyo, Japan, incubated at 40° C. for 6 hours for enzymatic hydrolysis and analyzed for degradation products on high-performance liquid chromatography, thus detecting glucose and trehalose as sole products. The noted glucose contents, trehalose contents and their molar ratios were as shown in Table 5.

beta-amylase = assay: Degradation by beta-amylase; assay type: biochemical
Description: Considering the reaction characteristics of glucoamylase, these saccharides very likely bear structures where glucose molecule(s) is bound to trehalose molecule via alpha1,4 or alpha-1,6 linkage: Saccharide PI is a non-reducing saccharide with a glucose polymerization degree of 3 where one glucose molecule is bound to one trehalose molecule; saccharide PII, another non-reducing saccharide with a glucose polymerization degree of 4 where two glucose molecules are bound to one trehalose molecule; saccharide PIII, still another non-reducing saccharide with a glucose polymerization degree of 5 where three glucose molecules are bound to one trehalose molecule; saccharide PIV, still another non-reducing saccharide with a glucose polymerization degree of 6 where four glucose molecules are bound to one trehalose molecule; and saccharide PV, still another non-reducing saccharide with a polymerization degree of 7 where five glucose molecules are bound to one trehalose molecule.

[3] = tested on: pig pancreas alpha-amylase; assay: Degradation by pig pancreas alpha-amylase; assay type: biochemical; conditions: for G1 (glucose) in degradation product by alpha-amylase / G2 (maltose) in degradation product by alpha-amylase / G3 (maltotriose) in degradation product by alpha-amylase / PI in degradation product by alpha-amylase / PII in degradation product by alpha-amylase: pH6.9, 37° C., 18 hours
Experimental: (§1) The non-reducing saccharide preparations PI, PII, PIII, PIV and PV as substrates prepared in Experiment 4 were subjected to pig pancreas alpha-amylase, rice alpha-glucosidase and acetone-pulverized rat small intestine enzyme, all of which were products of Sigma Chemical Co., St Louis, Mo., USA, and the degradation products were analyzed on high-performance liquid chromatography for saccharide composition. The reaction by alpha-amylase was carried out by dissolving 10 mg of either substrate in 1 ml of 50 mM phosphate buffer (pH6.9), adding thereto one unit of alpha-amylase and incubating at 37° C. for 18 hours. The reaction by alpha-glucosidase was conducted similarly as in the case of alpha-amylase except that 50 mM acetate buffer (pH4.0) was used. In the case of acetone-pulverized rat small intestine enzyme, the reaction was conducted similarly as in the case of alpha-amylase except that 50 mM maleic acid buffer (pH6.0) was used.

[4] = tested on: acetone-pulverized rat small intestine enzyme; assay: Degradation by acetone-pulverized rat small intestine enzyme; assay type: biochemical; conditions: for Glucose in degradation product by acetone-powdered rat small intestine enzyme / Others in degradation product by acetone-powdered rat small intestine enzyme / Trehalose in degradation product by acetone-powdered rat small intestine enzyme: pH6.0, 37° C., 18 hours
Experimental: as §1

[5] = biological target: T1, trehalose-releasing enzyme (Rhizobium sp. M-11, UniProt Q53238); assay type: biochemical, Rhizobium species M-11; conditions: for Composition: trehalose formed / Composition: reducing saccharide formed: 20% substrate, 2 units/g, 40° C., pH7.0, 48 hours; for Composition: reducing saccharide formed: glucose, maltose, maltotriose, maltotetraose or maltopentaose respectively; for Composition: residual substrate: trehalose-releasing enzyme, 48 h, pH 7
T1 construct: M-11, about 58-68 kDa
T1 sequence (Q53238 1-596): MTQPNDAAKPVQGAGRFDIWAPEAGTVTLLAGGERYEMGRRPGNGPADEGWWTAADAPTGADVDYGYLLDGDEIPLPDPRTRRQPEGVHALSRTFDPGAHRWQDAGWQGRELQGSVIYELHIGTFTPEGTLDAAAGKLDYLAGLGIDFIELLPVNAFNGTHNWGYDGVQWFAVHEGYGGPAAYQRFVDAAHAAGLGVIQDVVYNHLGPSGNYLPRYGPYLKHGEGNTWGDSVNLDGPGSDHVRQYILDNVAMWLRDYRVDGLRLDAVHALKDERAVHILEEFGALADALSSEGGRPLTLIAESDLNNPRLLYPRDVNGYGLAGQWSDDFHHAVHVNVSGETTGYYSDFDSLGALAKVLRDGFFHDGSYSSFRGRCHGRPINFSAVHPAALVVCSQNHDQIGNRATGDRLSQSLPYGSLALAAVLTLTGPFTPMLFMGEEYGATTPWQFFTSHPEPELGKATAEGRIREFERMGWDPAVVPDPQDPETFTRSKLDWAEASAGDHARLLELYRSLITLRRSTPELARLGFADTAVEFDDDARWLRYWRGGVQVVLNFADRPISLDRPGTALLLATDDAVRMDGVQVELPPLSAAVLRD
Experimental: Alpha-glycosyl trehaloses as substrates were prepared in accordance with the method described in Japanese Patent Application No. 349,216/93. More particularly, 20% aqueous solutions of maltotriose, maltotetraose, maltopentaose, maltohexaose or maltoheptaose as reducing partial starch hydrolysate were added with 2 units/g substrate solid of a purified non-reducing saccharide-forming enzyme obtained by the method in […], reacted at 40° C. and pH7.0 for 48 hours, heated for inactivation, filtered, deionized, concentrated in conventional manner and applied to ion exchange column chromatography on a strongly-acidic cation exchange "XT-1016" in sodium form. The ion exchange resin was packed in 3 jacketed-stainless steel columns, inner diameter of 2.0 cm, length of 1 m, and the columns were cascaded, loaded with 5 v/v % reaction saccharide liquid against the resin and injected with 55° C. water at SV0.13 for fractionation while keeping the temperature inside the columns at 55° C., thus obtaining high-purity preparations of non-reducing saccharides with glucose polymerization degrees of 3 or higher.
20% Aqueous solutions of these five types of non-reducing saccharides or alpha-glycosyl trehaloses were prepared, added with 2 units/g substrate solid of the purified trehalose-releasing enzyme obtained in Experiment 15, reacted at 40° C. and pH7.0 for 48 hours, deionized and subjected to high-performance liquid chromatography on "WAKO BEADS WB-T-330" for analysis of reaction products. As control, maltotriose, maltotetraose, maltopentaose, maltohexaose and maltoheptaose were subjected to the purified trehalose-releasing enzyme similarly as above and then analyzed on high-performance liquid chromatography.

SMILES | DE of saccharide preparation [1] | Coloration degree relative to maltooligosaccharides as material [2] | Degradation by glucoamylase (in words) (glucoamylase) | Molar ratio (glucose/trehalose) (glucoamylase) | Glucose in degradation product by glucoamylase (glucoamylase) [%] | Trehalose in degradation product by glucoamylase (glucoamylase) [%] | Degradation by beta-amylase (in words) (beta-amylase) | Degradation by alpha-amylase (in words) [3] | G1 (glucose) in degradation product by alpha-amylase [3] [%] | G2 (maltose) in degradation product by alpha-amylase [3] [%] | G3 (maltotriose) in degradation product by alpha-amylase [3] [%] | PI in degradation product by alpha-amylase [3] [%] | PII in degradation product by alpha-amylase [3] [%] | Degradation by acetone-pulverized rat small intestine enzyme (in words) [4] | Glucose in degradation product by acetone-powdered rat small intestine enzyme [4] [%] | Others in degradation product by acetone-powdered rat small intestine enzyme [4] [%] | Trehalose in degradation product by acetone-powdered rat small intestine enzyme [4] [%] | Composition: trehalose formed [5] [%] | Composition: reducing saccharide formed [5] [%] | Composition: residual substrate [5] [%] | other results
OC[C@H]1O[C@H](O[C@H]2O[C@H](CO)[C@@H](O[C@H]3O[C@H](CO)[C@@H](O[C@H]4O[C@H](CO)[C@@H](O[C@H]5O[C@H](CO)[C@@H](O[C@H]6O[C@H](CO)[C@@H](O[C@H]7O[C@H](CO)[C@@H](O)[C@H](O)[C@H]7O)[C@H](O)[C@H]6O)[C@H](O)[C@H]5O)[C@H](O)[C@H]4O)[C@H](O)[C@H]3O)[C@H](O)[C@H]2O)[C@H](O)[C@@H](O)[C@@H]1O [PV, alpha-maltopentaosyl trehalose] | 0.23 | 3-6% | five glucose molecules and one trehalose molecule | 5.11 | 72.9 | 27.1 | two maltose molecules and one saccharide PI molecule | degraded by alpha-amylase into smaller oligosaccharides; also recorded: yields non-reducing saccharide PII and maltotriose as predominant products | 1.0 | 8.6 | 35.3 | 10.2 | 44.9 | degradable | 73.4 | 0.1 | 26.5 | 29.1 | 70.6 | 0.3 | 
OC[C@H]1O[C@H](O[C@H]2O[C@H](CO)[C@@H](O[C@H]3O[C@H](CO)[C@@H](O[C@H]4O[C@H](CO)[C@@H](O)[C@H](O)[C@H]4O)[C@H](O)[C@H]3O)[C@H](O)[C@H]2O)[C@H](O)[C@@H](O)[C@@H]1O [PII, alpha-maltosyl trehalose] | 0.35 | 3-6% | two glucose molecules and one trehalose molecule; also recorded: one trehalose molecule and two glucose molecules | 2.06 | 52.0 | 48.0 | not degraded | hardly degraded by alpha-amylase | 0 | 0.8 | 0.4 | 0 | 98.8 | degradable | 52.5 | 0.4 | 47.1 | 44.3 | 44.4 | 11.3 | Coloration degree at 480 nm ([2]; 10% saccharide, 1% glycine, 50 mM phosphate buffer pH7.0, 100° C., 90 minutes, 1 cm cuvette): 0.018
